Source: patent US8026359B2, “Fungicidal heterocyclic amines” (E.I. du Pont de Nemours and Company, priority 2007, dated 2011)
Marks after values point to notes of the source that are not given here.

Assays:
Type in all cases: in vivo
[1] = test system: Botrytis cinerea; test: Test F: tomato Botrytis, preventive spray on tomato seedlings
Procedure, shortened: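 Preventive run-off spray onto tomato seedlings at 200 ppm (equivalent to 500 g/ha) or 40 ppm. Suspensions: compound predissolved in acetone at 3% of final volume, then taken up in acetone/purified water 50/50 containing 250 ppm Trem® 014 surfactant.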

[2] = test system: Septoria nodorum; test: Test C: wheat glume blotch, preventive spray on wheat seedlings; details: 200 ppm, 100 = 100% disease control, 0 = no control relative to controls; for pest or weed control at 200 ppm: Parastagonospora nodorum, 216 h, read-out: Test C disease control rating
Procedure, shortened: (§1)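 Each test compound, pre-dissolved in acetone, was suspended in aqueous acetone containing surfactant and sprayed onto the plants to the point of run-off at 200 or 40 ppm.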

[3] = test system: Rhizoctonia oryzae; test: Test P: rice sheath blight, preventive spray on rice seedlings; details: 100 ppm (100 g/ha, 1000 L/ha), inoculated the following day, 100 = 100% disease control, 0 = no control relative to controls
Text: (§2) General protocol for preparing test suspensions for Tests A-R: The test compounds were first dissolved in acetone in an amount equal to 3% of the final volume and then suspended at the desired concentration (in ppm) in acetone and purified water (50/50 mix) containing 250 ppm of the surfactant Trem® 014 (polyhydric alcohol esters). The resulting test suspensions were then used in tests A-R. In Tests A-M, compounds were sprayed as a 200 ppm test suspension (equivalent to a rate of 500 g/ha) or as a 40 ppm test suspension to the point of runoff on the test plants. In Tests N-R, compounds were sprayed as a 100 g/ha test suspension (equivalent to a rate of 100 ppm) on the test plants at an application volume of 1000 L/ha. The test suspension was sprayed on rice seedlings.

[4] = test system: Alternaria solani; test: Test H: tomato early blight, preventive spray on seedlings
Procedure, shortened: as §1

[5] = test system: Puccinia recondita f. sp. tritici; test: Test B: wheat leaf rust, preventive spray on wheat seedlings; details: 200 ppm, 100 = 100% disease control, 0 = no control relative to controls; for pest or weed control at 200 ppm: Puccinia recondita, 192 h, read-out: Test B disease control rating
Procedure, shortened: as §1

[6] = test system: Plasmopara viticola; test: Test R: grape downy mildew, preventive spray on grape seedlings; details: 100 ppm (100 g/ha, 1000 L/ha), inoculated the following day, 100 = 100% disease control, 0 = no control relative to controls
Text: as §2, with “grape” for “rice”, “seedlings. The following day the seedlings were inoculated with a spore suspension of Plasmopara viticola (the causal agent of grape downy mildew) and incubated in a saturated atmosphere at 20° C. for 24 h, then moved to a growth chamber at 20° C. for 7 days, after which time the test units were placed back into a saturated atmosphere at 20° C. for 24 h. Upon removal, disease ratings were made.” for “seedlings.”

[7] = test system: Venturia inaequalis; test: Test O: apple scab, preventive spray on apple seedlings; details: 100 ppm (100 g/ha, 1000 L/ha), inoculated the following day, 100 = 100% disease control, 0 = no control relative to controls
Text: as §2, with “apple” for “rice”

[8] = test system: Colletotrichum orbiculare; test: Test I: cucumber Colletotrichum anthracnose, preventive spray on cucumber seedlings; details: 100 = 100% disease control, 0 = no control relative to controls; for pest or weed control at 200 ppm: Colletotrichum orbiculare, 144 h, read-out: Test I disease control rating; for Test I disease control rating: 200 ppm
Procedure, shortened: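 Preventive foliar spray to run-off on cucumber seedlings, at 200 ppm (stated as equal to 500 g/ha) or 40 ppm. Test suspensions were made in acetone/water 50/50 containing 250 ppm Trem 014, after first dissolving compound in acetone at 3% of final volume.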

[9] = test system: Magnaporthe grisea; details: 100 ppm (100 g/ha, 1000 L/ha), rice seedlings, inoculated the following day; 100 = 100% disease control, 0 = no control relative to controls
[10] = test system: Uncinula necator; test: Test N: grape powdery mildew, preventive spray on grape seedlings; details: 100 ppm (100 g/ha, 1000 L/ha), inoculated the following day, 100 = 100% disease control, 0 = no control relative to controls
Text: as §2, with “grape” for “rice”

[11] = test system: Fusarium graminearum; test: whole plant or invertebrate; details: for pest or weed control at 200 ppm: Fusarium graminearum, in Triticum aestivum, 192 h, read-out: Test E disease control rating; for Test E disease control rating: 200 ppm, 100 = 100% disease control, 0 = no control relative to controls
[12] = test system: Erysiphe graminis f. sp. tritici; test: Test A: wheat powdery mildew, preventive spray on wheat seedlings
Procedure, shortened: as §1

[13] = test system: Septoria tritici; test: Test D: wheat leaf blotch, preventive spray on wheat seedlings; details: 200 ppm, 100 = 100% disease control, 0 = no control relative to controls; for pest or weed control at 200 ppm: Zymoseptoria tritici, 504 h, read-out: Test D disease control rating
Procedure, shortened: as §1

[14] = 200 ppm, 100 = 100% disease control, 0 = no control relative to controls

COCC(C)Nc1nccc(-c2ncnc(Nc3cccc(F)c3)n2)n1 (centres unmarked) [Compound 2, N-(3-fluorophenyl)-4-[2-[(2-methoxy-1-methylethyl)amino]-4-pyrimidinyl]-1,3,5-triazin-2-amine]
pest or weed control at 200 ppm ([1]; Botrytis cinerea, 120 h, 200 ppm, 100 = 100% disease control, 0 = no control relative to controls, read-out: Test F disease control rating): 93% | pest or weed control at 200 ppm [2]: 99% | Test P disease control rating [3]: 100% | pest or weed control at 200 ppm ([4]; Alternaria solani, 168 h, 200 ppm, 100 = 100% disease control, 0 = no control relative to controls, read-out: Test H disease control rating): 97% | pest or weed control at 200 ppm [5]: 99% | Test R disease control rating [6]: 60% | Test O disease control rating [7]: 95% | pest or weed control at 200 ppm [8]: 99% | Test Q disease control rating [9]: 93% | Test N disease control rating [10]: 89% | pest or weed control at 200 ppm [11]: 95% | pest or weed control at 200 ppm ([12]; Blumeria graminis, 192 h, 200 ppm, 100 = 100% disease control, 0 = no control relative to controls, read-out: Test A disease control rating): 94% | pest or weed control at 200 ppm [13]: 71%

COC[C@H](C)Nc1nccc(-c2ncnc(Nc3cccc(C#N)c3)n2)n1 [Compound 18]
Test F disease control rating [1, 14]: 95% | Test C disease control rating [2]: 100% | Test P disease control rating [3]: 100% | Test H disease control rating ([4]; 40 ppm (marked *)): 89* % | Test B disease control rating [5]: 100% | Test R disease control rating [6]: 86% | Test O disease control rating [7]: 83% | Test I disease control rating [8]: 99% | Test Q disease control rating [9]: 100% | Test N disease control rating [10]: 99% | Test E disease control rating [11]: 85% | Test D disease control rating [13]: 0%

COC[C@H](C)Nc1nccc(-c2ccnc(Nc3cccc(F)c3)c2)n1 [Compound 56]
Test F disease control rating [1, 14]: 99% | Test C disease control rating [2]: 99% | Test P disease control rating [3]: 100% | Test B disease control rating [5]: 99% | Test R disease control rating [6]: 97% | Test O disease control rating [7]: 75% | Test I disease control rating [8]: 90% | Test Q disease control rating [9]: 98% | Test N disease control rating [10]: 64% | Test E disease control rating [11]: 90% | Test A disease control rating [12, 14]: 84% | Test D disease control rating [13]: 82%

COC[C@H](C)Nc1nccc(-c2ncnc(Nc3cc(F)cc(F)c3)n2)n1 [Compound 22, N-(3,5-difluorophenyl)-4-[2-[[(1S)-2-methoxy-1-methylethyl]amino]-4-pyrimidinyl]-1,3,5-triazin-2-amine]
pest or weed control at 40 ppm ([1]; Botrytis cinerea, 120 h, 40 ppm (marked *), read-out: Test F disease control rating): 99% | pest or weed control at 200 ppm [2]: 100% | Test P disease control rating [3]: 100% | pest or weed control at 40 ppm ([4]; Alternaria solani, 168 h, 40 ppm (marked *), read-out: Test H disease control rating): 100% | pest or weed control at 200 ppm [5]: 99% | Test R disease control rating [6]: 83% | Test O disease control rating [7]: 99% | pest or weed control at 200 ppm [8]: 100% | Test Q disease control rating [9]: 100% | Test N disease control rating [10]: 99% | pest or weed control at 200 ppm [11]: 99% | pest or weed control at 40 ppm ([12]; Blumeria graminis, 192 h, 40 ppm (marked *), read-out: Test A disease control rating): 69% | pest or weed control at 200 ppm [13]: 36%
